Experiment [1] concerns the target T1, NAD-dependent protein deacylase sirtuin-5, mitochondrial (Homo sapiens, UniProt Q9NXA8). The experiment is described as follows: Inhibition of human N-terminal His-tagged SIRT5 (34 to 302 residues) expressed in Escherichia coli using Ac-Leu-Gly-Ser-Lys(Su)-AMC as substrate preincubated for 10 mins followed by substrate addition and measured after 30 mins in presence of NAD+ by fluorescence assay.

Experiment [2] deals with T1, NAD-dependent protein deacylase sirtuin-5, mitochondrial. The experiment is described as follows: Inhibition of human N-terminal His-tagged SIRT5 (34 to 302 residues) expressed in Escherichia coli using Ac-His-Phe-Ser-Lys(Su)-AMC as substrate preincubated for 10 mins followed by substrate addition and measured after 30 mins in presence of NAD+ by fluorescence assay.

Experiment [3] has the same target. Kind of experiment: Inhibition of human N-terminal His-tagged SIRT5 (34 to 302 residues) expressed in Escherichia coli using Ac-Tyr-Lys-Leu-Lys(Ac)-AMC as substrate preincubated for 10 mins followed by substrate addition and measured after 30 mins in presence of NAD+ by fluorescence assay.
Experiment [4] has as its target T2, NAD-dependent protein deacetylase sirtuin-1 (Homo sapiens, UniProt Q96EB6).
T2 sequence (Q96EB6 whole entry): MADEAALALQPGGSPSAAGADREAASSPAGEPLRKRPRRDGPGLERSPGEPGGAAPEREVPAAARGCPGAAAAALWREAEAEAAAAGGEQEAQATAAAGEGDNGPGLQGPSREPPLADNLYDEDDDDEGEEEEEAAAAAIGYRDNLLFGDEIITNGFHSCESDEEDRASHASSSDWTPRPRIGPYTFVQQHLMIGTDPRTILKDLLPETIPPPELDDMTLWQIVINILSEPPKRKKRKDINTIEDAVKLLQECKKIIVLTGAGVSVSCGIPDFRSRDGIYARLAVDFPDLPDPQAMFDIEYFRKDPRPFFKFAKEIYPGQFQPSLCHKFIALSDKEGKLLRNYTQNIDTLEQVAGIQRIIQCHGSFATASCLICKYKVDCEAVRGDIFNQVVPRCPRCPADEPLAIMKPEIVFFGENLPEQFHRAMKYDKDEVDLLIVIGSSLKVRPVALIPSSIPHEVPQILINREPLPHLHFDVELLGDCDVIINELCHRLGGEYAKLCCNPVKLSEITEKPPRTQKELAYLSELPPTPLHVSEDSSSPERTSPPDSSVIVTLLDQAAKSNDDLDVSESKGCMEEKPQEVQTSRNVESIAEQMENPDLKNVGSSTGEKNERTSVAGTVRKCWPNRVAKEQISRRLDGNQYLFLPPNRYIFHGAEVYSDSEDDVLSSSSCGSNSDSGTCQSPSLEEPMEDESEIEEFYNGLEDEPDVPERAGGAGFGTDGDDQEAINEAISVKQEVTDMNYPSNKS
Kind of experiment: Inhibition of human N-terminal His-tagged SIRT1 (183 to 664 residues) expressed in Escherichia coli using Ac-Tyr-Lys-Leu-Lys(Ac)-AMC as substrate preincubated for 10 mins followed by substrate addition and measured after 30 mins in presence of NAD+ by fluorescence assay.

Experiment [5] deals with T2, NAD-dependent protein deacetylase sirtuin-1. Kind of experiment: Inhibition of human N-terminal His-tagged SIRT1 (183 to 664 residues) expressed in Escherichia coli using Ac-Arg-Leu-Ile-Lys(Ac)-AMC as substrate preincubated for 10 mins followed by substrate addition and measured after 30 mins in presence of NAD+ by fluorescence assay.
The target in experiment [6] is T3, NAD-dependent protein deacetylase sirtuin-2 (Homo sapiens, UniProt Q8IXJ6).
T3 sequence (Q8IXJ6 whole entry): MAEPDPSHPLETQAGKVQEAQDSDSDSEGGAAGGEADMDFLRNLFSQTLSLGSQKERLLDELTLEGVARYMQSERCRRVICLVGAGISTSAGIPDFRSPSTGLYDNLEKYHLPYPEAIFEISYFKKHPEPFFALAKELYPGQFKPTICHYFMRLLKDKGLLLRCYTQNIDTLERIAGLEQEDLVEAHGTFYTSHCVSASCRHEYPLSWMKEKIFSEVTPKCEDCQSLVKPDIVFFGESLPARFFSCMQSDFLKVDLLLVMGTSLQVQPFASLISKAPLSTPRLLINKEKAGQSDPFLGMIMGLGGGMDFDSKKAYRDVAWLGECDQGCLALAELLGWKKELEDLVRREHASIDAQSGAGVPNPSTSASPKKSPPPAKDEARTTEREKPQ
Kind of experiment: Inhibition of human N-terminal His-tagged SIRT2 (56 to 356 residues) expressed in Escherichia coli using Ac-Arg-Leu-Ile-Lys(Ac)-AMC as substrate preincubated for 10 mins followed by substrate addition and measured after 30 mins in presence of NAD+ by fluorescence assay.

In experiment [7] the target is T3, NAD-dependent protein deacetylase sirtuin-2. Kind of experiment: Inhibition of human N-terminal His-tagged SIRT2 (56 to 356 residues) expressed in Escherichia coli using Ac-Ser-Ser-Ile-Lys(De)-AMC as substrate preincubated for 10 mins followed by substrate addition and measured after 30 mins in presence of NAD+ by fluorescence assay.

The source of these data is ChEMBL document CHEMBL4680222, “Sensitive fluorogenic substrates for sirtuin deacylase inhibitor discovery” (Eur J Med Chem, 2020).

Structures are written as SMILES. pIC50: −log10 of the molar value.

T1 sequence (Q9NXA8 whole entry, the tested form may be a part): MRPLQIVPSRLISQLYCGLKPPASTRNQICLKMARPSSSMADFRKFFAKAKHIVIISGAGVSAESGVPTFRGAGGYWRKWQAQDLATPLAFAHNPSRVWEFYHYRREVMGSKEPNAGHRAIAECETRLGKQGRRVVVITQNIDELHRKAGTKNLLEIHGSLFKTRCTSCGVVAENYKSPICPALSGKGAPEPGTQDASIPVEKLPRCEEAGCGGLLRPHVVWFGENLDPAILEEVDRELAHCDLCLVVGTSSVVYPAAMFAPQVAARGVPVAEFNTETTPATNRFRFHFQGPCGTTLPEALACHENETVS

The term pIC50 denotes the IC50 on a negative log10 scale, so that one unit is a factor of ten. With `CC(C)c1ccccc1Cc1cc(C(=O)Nc2ccc(S(=O)(=O)c3ccccc3C(C)(C)C)cc2)c(O)c(O)c1O`, the pIC50 was 5.21 in experiment [1], 5.18 in experiment [2] and 4.66 in experiment [3].

For the compound `c1cncc(-c2c[nH]nn2)c1`, the pIC50 in experiment [4] was 3.84; in experiment [5] it was 3.58.

As to `NC(=O)C1CCCc2c1[nH]c1ccc(Cl)cc21` (centres undefined), the pIC50 in experiment [1] and in experiment [3] was under 3.70 in each case.

In the case of `Cc1ccc(C(=O)Nc2ccc(S(=O)(=O)O)c3cc(S(=O)(=O)O)cc(S(=O)(=O)O)c23)cc1NC(=O)c1cccc(NC(=O)Nc2cccc(C(=O)Nc3cc(C(=O)Nc4ccc(S(=O)(=O)O)c5cc(S(=O)(=O)O)cc(S(=O)(=O)O)c45)ccc3C)c2)c1` [SURAMIN], the negative-log IC50 (pIC50) in experiment [6] was 5.66; in experiment [7] it was 4.63.
